# US20230392116A1, “METHOD FOR DIFFERENTIATING CORNEAL ENDOTHELIAL CELL-LIKE CELLS FROM PLURIPOTENT STEM CELLS” (StemSight Oy, priority 2020, published 2023)
# Test system: human pluripotent stem cells (hPSC)
# Test: Differentiation of human pluripotent stem cells (hPSC) into corneal endothelial cell (CEC)-like cells
# Type: cell-based
# Conditions: for emergence of NCC markers: SB431542 and CHIR99021 as differentiation induction agents; for time at which NCC markers appeared: culture medium with about 10 μM SB431542 and about 4 μM CHIR99021 together
# Description: Embryonic (hESC) and induced pluripotent stem cells (iPSC) were used to generate CECs. Briefly, hPSCs were seeded on Laminin 521 (Biolamina) coated CellBind 6/12 well-plates (Corning) in 10 000-60 000 cell/cm 2 cell density. The cells were cultured in Essential 8 Flex medium (Thermo Fisher) for 24h. On day 1, Essential 8 flex medium was replaced with an induction medium supplemented with 10 μM SB431542 (Stemcell), 4 μM CHIR99021 (Stemcell) and 10 μM retinoic acid (RA, Sigma-Aldrich). Base of the induction medium consisted of KO-DMEM, 15% Knock-out serum replacement, 2 mM GlutaMax-I, 0.1 mM 2-mercaptoethanol (all from Thermo Fisher), 1% Non-essential Amino Acids, 50 U/ml Penicillin/Streptomycin. […] After day 9, CEC-like cells were formed, and harvested for analyses.
# The hPSC-derived CECs were analyzed by immunocytochemistry. Briefly, the cells were fixed with 1 or 4% paraformaldehyde (PFA, Sigma-Aldrich) for 15 minutes. Next, the cells were permeabilized for 10 minutes with 0.1% Triton X-100 (Sigma-Aldrich) followed by blocking with 3% bovine serum albumin (BSA) for 1 hour. Then the cells were first incubated with 1:400 zona occludens-1 (ZO-1; Thermo Fisher), 1:200 alpha 1 sodium potassium ATPase (Na+/K+-ATPase, Abcam) and 1:400 CD166 (BD Biosciences) primary antibodies overnight at 4° C. The cells were next treated with 1:800 Donkey anti-Rabbit IgG Secondary Antibody, Alexa Fluor 488 (Thermo Fisher) against ZO-1; 1:800 Donkey anti-Mouse IgG Secondary Antibody, Alexa Fluor 568 (Thermo Fisher) against Na+/K+-ATPase and CD166; and 1:800 Donkey anti-Goat IgG Secondary Antibody, Alexa Fluor 568 (Thermo Fisher) against OCT-3/4. […] The images of mounted cells were captured using a fluorescence microscope (Olympus IX51; Olympus, Tokyo, Japan) and prepared using image editing software (Adobe Photoshop CC 2018; Adobe Systems) […]
# Total RNA was extracted from undifferentiated hPSCs (d0), and from 3 time points during the time of hCEC induction (d3, d6 and d9) with Rneasy Minikit Plus (Qiagen). RNA concentration of each sample was determined using NanoDrop-1000 spectrophotometer (NanoDrop Technologies). […] The resulting cDNA samples were analyzed with qPCR using sequence-specific TaqMan Gene Expression Assays (Thermo Fisher) for OCT4 (Hs00999632_g1), PITX2 (Hs01553179_m1), AQP1 (Hs01028916_m1), SLC4A4 (Hs00186798_m1), and FOXC1 (Hs00559473_s1). […] Results were analyzed with the 7300 System SDS Software (Applied Biosystems) and Microsoft Excel. Based on the cycle threshold (CT) values given by the software, the relative quantification of each gene was calculated by applying the […] (Livak and Schmittgen, 2001). Results were normalized to GAPDH (Hs99999905_m1), with the undifferentiated hPSCs as the calibrator to determine the relative quantities of gene expression in each sample.
SMILES,emergence of NCC markers,time at which NCC markers appeared [days]
Cc1c[nH]c(-c2cnc(NCCNc3ccc(C#N)cn3)nc2-c2ccc(Cl)cc2Cl)n1 [CHIR99021],contributed to emergence of NCC markers,~3
"NC(=O)c1ccc(-c2nc(-c3ccc4c(c3)OCO4)c(-c3ccccn3)[nH]2)cc1 [SB431542, 4-[4-(1,3-Benzodioxol-5-yl)-5-(2-pyridinyl)-1H-imidazol-2-yl]-benzamide]",contributed to emergence of NCC markers,~3
